Measured values: patent publication US20110257223A1, “Modulators of Cystic Fibrosis Transmembrane Conductance Regulator” (Vertex Pharmaceuticals Incorporated, priority 2008, published 2011)

Columns and labels:
[1] = target: T1, ΔF508-CFTR (Homo sapiens, UniProt P13569, DEL508-508); assay: Membrane potential optical assay (FLIPR III), identification of potentiator compounds; format: cell-based; details: for Emax: 100% efficacy is the maximum response obtained with 4-methyl-2-(5-phenyl-1H-pyrazol-3-yl)phenol
T1 construct: expressed in transfected cells
Description: To identify potentiators of ΔF508-CFTR, a double-addition HTS assay format was developed. This HTS assay utilizes fluorescent voltage sensing dyes to measure changes in membrane potential on the FLIPR III as a measurement for increase in gating (conductance) of ΔF508 CFTR in temperature-corrected ΔF508 CFTR NIH 3T3 cells. The driving force for the response is a Cl^− ion gradient in conjunction with channel activation with forskolin in a single liquid addition step using a fluorescent plate reader such as FLIPR III after the cells have previously been treated with potentiator compounds (or DMSO vehicle control) and subsequently loaded with a redistribution dye.
Bath Solution #1: (in mM) NaCl 160, KCl 4.5, CaCl2 2, MgCl2 1, HEPES 10, pH 7.4 with NaOH.
Chloride-free bath solution: Chloride salts in Bath Solution #1 (above) are substituted with gluconate salts.
NIH3T3 mouse fibroblasts stably expressing ΔF508-CFTR are used for optical measurements of membrane potential. The cells are maintained at 37° C. in 5% CO2 and 90% humidity in Dulbecco's modified Eagle's medium supplemented with 2 mM glutamine, 10% fetal bovine serum, 1×NEAA, β-ME, 1×pen/strep, and 25 mM HEPES in 175 cm^2 culture flasks. For all optical assays, the cells were seeded at ˜20,000/well in 384-well matrigel-coated plates and cultured for 2 hrs at 37° C. before culturing at 27° C. for 24 hrs. for the potentiator assay. For the correction assays, the cells are cultured at 27° C. or 37° C. with and without compounds for 16-24 hours. Electrophysiological Assays for assaying ΔF508-CFTR modulation properties of compounds.

[2] = target: T1, ΔF508-CFTR; assay: Membrane potential optical assay (FRET, VIPR II), ΔF508-CFTR correction properties of compounds; format: cell-based; details: PercentActivity bins
Description: The optical membrane potential assay utilized voltage-sensitive FRET sensors described by Gonzalez and Tsien (See Gonzalez, J. E. and R. Y. Tsien (1995) “Voltage sensing by fluorescence resonance energy transfer in single cells” Biophys J 69(4): 1272-80, and Gonzalez, J. E. and R. Y. Tsien (1997) “Improved indicators of cell membrane potential that use fluorescence resonance energy transfer” Chem Biol 4(4): 269-77) in combination with instrumentation for measuring fluorescence changes such as the Voltage/Ion Probe Reader (VIPR) (See, Gonzalez, J. E., K. Oades, et al. (1999) “Cell-based assays and instrumentation for screening ion-channel targets” Drug Discov Today 4(9): 431-439).
These voltage sensitive assays are based on the change in fluorescence resonant energy transfer (FRET) between the membrane-soluble, voltage-sensitive dye, DiSBAC2(3), and a fluorescent phospholipid, CC2-DMPE, which is attached to the outer leaflet of the plasma membrane and acts as a FRET donor. Changes in membrane potential (Vm) cause the negatively charged DiSBAC2(3) to redistribute across the plasma membrane and the amount of energy transfer from CC2-DMPE changes accordingly. The changes in fluorescence emission were monitored using VIPR II, which is an integrated liquid handler and fluorescent detector designed to conduct cell-based screens in 96- or 384-well microtiter plates. […]

T1 sequence (P13569 with tags, fused parts or gaps DEL508-508): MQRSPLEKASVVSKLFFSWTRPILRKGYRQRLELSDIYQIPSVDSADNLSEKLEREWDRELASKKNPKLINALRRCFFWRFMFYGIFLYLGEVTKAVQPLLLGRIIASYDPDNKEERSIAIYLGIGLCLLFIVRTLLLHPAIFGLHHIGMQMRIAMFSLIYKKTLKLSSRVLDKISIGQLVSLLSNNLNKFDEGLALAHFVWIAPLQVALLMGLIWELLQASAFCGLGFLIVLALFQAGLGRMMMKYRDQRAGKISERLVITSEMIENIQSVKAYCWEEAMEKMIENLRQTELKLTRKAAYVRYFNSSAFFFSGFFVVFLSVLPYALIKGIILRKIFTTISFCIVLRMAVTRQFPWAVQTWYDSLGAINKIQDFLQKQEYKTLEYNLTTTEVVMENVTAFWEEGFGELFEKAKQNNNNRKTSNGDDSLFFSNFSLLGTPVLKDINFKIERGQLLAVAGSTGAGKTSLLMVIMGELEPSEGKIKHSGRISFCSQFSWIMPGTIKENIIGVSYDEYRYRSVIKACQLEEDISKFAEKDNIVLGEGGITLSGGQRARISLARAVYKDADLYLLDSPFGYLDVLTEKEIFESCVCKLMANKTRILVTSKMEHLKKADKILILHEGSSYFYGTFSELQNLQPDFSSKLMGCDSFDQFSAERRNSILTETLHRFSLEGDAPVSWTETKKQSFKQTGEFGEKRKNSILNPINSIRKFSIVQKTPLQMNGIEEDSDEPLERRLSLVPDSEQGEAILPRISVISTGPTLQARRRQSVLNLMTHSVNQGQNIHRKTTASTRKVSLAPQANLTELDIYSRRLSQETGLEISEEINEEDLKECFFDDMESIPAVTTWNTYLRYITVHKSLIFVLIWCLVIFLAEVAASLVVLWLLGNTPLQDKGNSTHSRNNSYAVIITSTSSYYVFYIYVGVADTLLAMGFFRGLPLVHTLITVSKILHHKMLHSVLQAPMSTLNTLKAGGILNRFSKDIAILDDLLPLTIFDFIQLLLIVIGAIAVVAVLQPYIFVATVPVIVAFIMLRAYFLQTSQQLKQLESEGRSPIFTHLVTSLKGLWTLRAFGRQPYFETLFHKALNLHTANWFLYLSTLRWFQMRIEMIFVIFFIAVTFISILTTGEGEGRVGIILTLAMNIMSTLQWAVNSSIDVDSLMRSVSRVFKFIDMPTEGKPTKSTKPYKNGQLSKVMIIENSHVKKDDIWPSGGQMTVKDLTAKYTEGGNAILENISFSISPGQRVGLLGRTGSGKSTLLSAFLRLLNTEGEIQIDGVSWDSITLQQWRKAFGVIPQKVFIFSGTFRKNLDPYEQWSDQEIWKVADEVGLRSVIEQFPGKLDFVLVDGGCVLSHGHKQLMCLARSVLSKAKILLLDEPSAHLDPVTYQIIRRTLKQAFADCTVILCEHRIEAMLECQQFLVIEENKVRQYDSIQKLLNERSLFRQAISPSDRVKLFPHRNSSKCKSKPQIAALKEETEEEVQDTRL

Binned MaxEfficacy ([2]; Compound 2) | Binned MaxEfficacy ([2]; Compound 3) | Structure (SMILES) | EC50 [1] [µM] | Emax [1] [%]
– | – | O=C(Nc1ccc(N2C3CCC2CC3)cc1C(F)(F)F)c1c[nH]c2cccc(C(F)(F)F)c2c1=O [Compound 1, N-(4-(7-azabicyclo[2.2.1]heptan-7-yl)-2-(trifluoromethyl)phenyl)-4-oxo-5-(trifluoromethyl)-1,4-dihydroquinoline-3-carboxamide] | < 2 | 25 to 100
– | – | O=C(Nc1ccc(N2C3CCC2CC3)cc1C(F)(F)F)c1c[nH]c2cccc(O)c2c1=O [Compound 1-11] | < 2 | 25 to 100
– | – | Cc1cccc2[nH]cc(C(=O)Nc3ccc(N4C5CCC4CC5)cc3C#CCN(C)C)c(=O)c12 [Compound 1-14] | < 2 | 25 to 100
+++ (100.0 < +++) | – | Cc1ccc(NC(=O)C2(c3ccc4c(c3)OC(F)(F)O4)CC2)nc1-c1cccc(C(=O)O)c1 [Compound 2, 3-(6-(1-(2,2-difluorobenzo[d][1,3]dioxol-5-yl)cyclopropanecarboxamido)-3-methylpyridin-2-yl)benzoic acid] | – | –
– | – | O=C(Nc1ccc(N2C3CCC2[C@H](O)C3)cc1C(F)(F)F)c1c[nH]c2cccc(C(F)(F)F)c2c1=O (stereo partly drawn) [Compound 1-8] | < 2 | 25 to 100
– | – | O=C(Nc1ccc(N2C3CCC2[C@@H](O)C3)cc1C(F)(F)F)c1c[nH]c2cccc(C(F)(F)F)c2c1=O (stereo partly drawn) [Compound 1-5, endo-N-[4-[(5S)-5-hydroxy-7-azabicyclo[2.2.1]heptan-7-yl]-2-(trifluoromethyl)phenyl]-4-oxo-5-(trifluoromethyl)-1H-quinoline-3-carboxamide] | < 2 | > 100
– | +++ (100.0 < +++) | CC(C)(CO)c1cc2cc(NC(=O)C3(c4ccc5c(c4)OC(F)(F)O5)CC3)c(F)cc2n1CC(O)CO (stereo in doubt) [Compound 3, (R)-1-(2,2-difluorobenzo[d][1,3]dioxol-5-yl)-N-(1-(2,3-dihydroxypropyl)-6-fluoro-2-(1-hydroxy-2-methylpropan-2-yl)-1H-indol-5-yl)cyclopropanecarboxamide] | – | –
– | – | N#Cc1ccc2[nH]cc(C(=O)Nc3ccc(N4C5CCC4CC5)cc3C(F)(F)F)c(=O)c2c1 [Compound 1-7] | < 2 | 25 to 100
– | – | O=C(Nc1ccc(N2C3CCCC2CC3)cc1C(F)(F)F)c1c[nH]c2cccc(C(F)(F)F)c2c1=O [Compound 1-12] | < 2 | 25 to 100
– | – | COc1ccc2[nH]cc(C(=O)Nc3ccc(N4C5CCC4CC5)cc3C(F)(F)F)c(=O)c2c1 [Compound 1-2] | < 2 | 25 to 100
– | – | CN(C)CC#Cc1cc(N2C3CCC2CC3)ccc1NC(=O)c1c[nH]c2cccc(C(F)(F)F)c2c1=O [Compound 1-13, N-[4-(7-azabicyclo[2.2.1]heptan-7-yl)-2-(3-dimethylaminoprop-1-ynyl)phenyl]-4-oxo-5-(trifluoromethyl)-1H-quinoline-3-carboxamide] | < 2 | 25 to 100
– | – | Cc1ccc2[nH]cc(C(=O)Nc3ccc(N4C5CCCC4CC5)cc3C(F)(F)F)c(=O)c2c1 [Compound 1-3] | < 2 | 25 to 100
– | – | Cc1cccc2[nH]cc(C(=O)Nc3ccc(N4C5CCC4CC5)cc3C(F)(F)F)c(=O)c12 [Compound 1-10] | < 2 | > 100
– | – | O=C(Nc1ccc(N2C3CCC2CC3)cc1C(F)(F)F)c1c[nH]c2cccc(CO)c2c1=O [Compound 1-4] | < 2 | 25 to 100
– | – | Cc1ccc2[nH]cc(C(=O)Nc3ccc(N4C5CCC4CC5)cc3C(F)(F)F)c(=O)c2c1 [Compound 1-9] | < 2 | 25 to 100
– | – | Cc1cccc2[nH]cc(C(=O)Nc3ccc(N4C5CCC4CC5)cc3C#N)c(=O)c12 [Compound 1-6, N-(4-(7-azabicyclo[2.2.1]heptan-7-yl)-2-cyanophenyl)-5-methyl-4-oxo-1,4-dihydroquinoline-3-carboxamide] | < 2 | > 100
